test system: IFNγ-Induced NO Production; experiment: Nitric Oxide Suppression Assay (Suppression of IFNγ-Induced NO Production); assay type: cell-based; conditions: RAW264.7; RAW 264.7 mouse macrophage cells; 2 hour pre-treatment with compound (3 μM to 0.3 nM, 10 point curve); 20 ng/mL interferon gamma, ~18 hour; Griess detection; n=2-3 in duplicates
In short: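 Griess-based absorbance read (520–550 nm) of supernatant after RAW 264.7 mouse macrophages received 10-point compound dilutions (3 μM–0.3 nM, DMSO ≤1%) for 2 h, then 20 ng/mL IFNγ for ~18 h at 37 °C. Signal normalised to IFNγ-only peak; IC50 fitted to mean of n=2-3 duplicates.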

In order of falling IC50:
1. Cc1nc(-c2cccc(CCC(=O)O)c2)c2c(n1)[C@@]1(c3ccccc3)C=C(C#N)C(=O)[C@@H](C)[C@@H]1CC2 [Example 155, 3-{3-[(6aS,7S,10aR)-9-cyano-2,7-dimethyl-8-oxo-10a-phenyl-5,6,6a,7,8,10a-hexahydrobenzo[h]quinazolin-4-yl]phenyl}propanoic acid]  107 nM
2. C[C@@H]1C(=O)C(C#N)=C[C@]2(c3ccccc3)c3nn(C)c(-c4cccc(-c5cccc(C(=O)O)c5)c4)c3CC[C@@H]12 [Example 166, 3′-[(5aS,6S,9aR)-8-cyano-2,6-dimethyl-7-oxo-9a-phenyl-4,5,5a,6,7,9a-hexahydro-2H-benzo[g]indazol-3-yl]biphenyl-3-carboxylic acid]  65.6 nM
3. Cc1nc(-c2ccc(N3CCOCC3)c(Br)c2)c2c(n1)[C@@]1(c3ccccc3)C=C(C#N)C(=O)[C@@H](C)[C@@H]1CC2 [Example 146, (6aS,7S,10aR)-4-[3-bromo-4-(morpholin-4-yl)phenyl]-2,7-dimethyl-8-oxo-10a-phenyl-5,6,6a,7,8,10a-hexahydrobenzo[h]quinazoline-9-carbonitrile]  52.2 nM
4. Cc1nc(-c2ccnnc2)c2c(n1)[C@@]1(c3ccccc3)C=C(C#N)C(=O)[C@@H](C)[C@@H]1CC2 [Example 172, (6aS,7S,10aR)-2,7-dimethyl-8-oxo-10a-phenyl-4-(pyridazin-4-yl)-5,6,6a,7,8,10a-hexahydrobenzo[h]quinazoline-9-carbonitrile]  49.4 nM
5. Cc1nc(Nc2cccnc2)c2c(n1)[C@@]1(c3ccccc3)C=C(C#N)C(=O)[C@@H](C)[C@@H]1CC2 [Example 147, (6aS,7S,10aR)-2,7-dimethyl-8-oxo-10a-phenyl-4-(pyridin-3-ylamino)-5,6,6a,7,8,10a-hexahydrobenzo[h]quinazoline-9-carbonitrile]  48 nM
6. COC(=O)CCc1cccc(-c2nc(C)nc3c2CC[C@H]2[C@H](C)C(=O)C(C#N)=C[C@]32c2ccccc2)c1 [Example 154, methyl 3-{3-[(6aS,7S,10aR)-9-cyano-2,7-dimethyl-8-oxo-10a-phenyl-5,6,6a,7,8,10a-hexahydrobenzo[h]quinazolin-4-yl]phenyl}propanoate]  47.5 nM
7. C[C@@H]1C(=O)C(C#N)=C[C@]2(c3ccccc3)c3n[nH]c(-c4cnn(-c5ccc(C#N)cc5)c4)c3CC[C@@H]12 [Example 157, (5aS,6S,9aR)-3-[1-(4-cyanophenyl)-1H-pyrazol-4-yl]-6-methyl-7-oxo-9a-phenyl-4,5,5a,6,7,9a-hexahydro-2H-benzo[g]indazole-8-carbonitrile]  44.4 nM
8. C[C@@H]1C(=O)C(C#N)=C[C@]2(c3ccccc3)c3n[nH]c(-c4cnn(-c5ccncc5)c4)c3CC[C@@H]12 [Example 159, (5aS,6S,9aR)-6-methyl-7-oxo-9a-phenyl-3-[1-(pyridin-4-yl)-1H-pyrazol-4-yl]-4,5,5a,6,7,9a-hexahydro-2H-benzo[g]indazole-8-carbonitrile]  33.8 nM
9. C[C@@H]1C(=O)C(C#N)=C[C@]2(c3ccccc3)c3n[nH]c(-c4cnn(-c5cccnc5)c4)c3CC[C@@H]12 [Example 158, (5aS,6S,9aR)-6-methyl-7-oxo-9a-phenyl-3-[1-(pyridin-3-yl)-1H-pyrazol-4-yl]-4,5,5a,6,7,9a-hexahydro-2H-benzo[g]indazole-8-carbonitrile]  33 nM
10. C[C@@H]1C(=O)C(C#N)=C[C@]2(c3ccccc3)c3nn(C)c(-c4cccc(Br)c4)c3CC[C@@H]12 [Example 148, (5aS,6S,9aR)-3-(3-bromophenyl)-2,6-dimethyl-7-oxo-9a-phenyl-4,5,5a,6,7,9a-hexahydro-2H-benzo[g]indazole-8-carbonitrile]  31.5 nM
11. Cc1noc(-c2ccc(-c3ncc4c(n3)[C@@]3(c5ccccc5)C=C(C#N)C(=O)[C@@H](C)[C@@H]3CC4)cc2)n1 [Example 173, (6aS,7S,10aR)-7-methyl-2-[4-(3-methyl-1,2,4-oxadiazol-5-yl)phenyl]-8-oxo-10a-phenyl-5,6,6a,7,8,10a-hexahydrobenzo[h]quinazoline-9-carbonitrile]  19.7 nM
12. C[C@@H]1C(=O)C(C#N)=C[C@]2(c3ccccc3)c3nn(C)c(-c4cccc(-c5ccc(C(N)=O)cc5)c4)c3CC[C@@H]12 [Example 171, 3′-[(5aS,6S,9aR)-8-cyano-2,6-dimethyl-7-oxo-9a-phenyl-4,5,5a,6,7,9a-hexahydro-2H-benzo[g]indazol-3-yl]biphenyl-4-carboxamide]  13.9 nM
13. COC(=O)c1ccc([C@]23C=C(C#N)C(=O)[C@@H](C)[C@@H]2CCc2c(-c4c(Br)ncn4C)nc(C)nc23)cc1 [Example 176, methyl 4-[(6aS,7S,10aR)-4-(4-bromo-1-methyl-1H-imidazol-5-yl)-9-cyano-2,7-dimethyl-8-oxo-6,6a,7,8-tetrahydrobenzo[h]quinazolin-10a(5H)-yl]benzoate]  12.8 nM
14. C[C@@H]1C(=O)C(C#N)=C[C@]2(c3ccccc3)c3nn(C)c(-c4cccc(-c5ccc(CNS(C)(=O)=O)cc5)c4)c3CC[C@@H]12 [Example 168, N-({3′-[(5aS,6S,9aR)-8-cyano-2,6-dimethyl-7-oxo-9a-phenyl-4,5,5a,6,7,9a-hexahydro-2H-benzo[g]indazol-3-yl]biphenyl-4-yl}methyl)methanesulfonamide]  12.3 nM
15. C[C@@H]1C(=O)C(C#N)=C[C@]2(c3ccccc3)c3nn(C)c(-c4cccc(-c5ccc(N(S(C)(=O)=O)S(C)(=O)=O)cc5)c4)c3CC[C@@H]12 [Example 152, N-{3′-[(5aS,6S,9aR)-8-cyano-2,6-dimethyl-7-oxo-9a-phenyl-4,5,5a,6,7,9a-hexahydro-2H-benzo[g]indazol-3-yl]biphenyl-4-yl}-N-(methylsulfonyl)methanesulfonamide]  11.5 nM
16. C[C@@H]1C(=O)C(C#N)=C[C@]2(c3ccccc3)c3nn(C)c(-c4cncnc4)c3CC[C@@H]12 [Example 177, (5aS,6S,9aR)-2,6-dimethyl-7-oxo-9a-phenyl-3-(pyrimidin-5-yl)-4,5,5a,6,7,9a-hexahydro-2H-benzo[g]indazole-8-carbonitrile]  10.8 nM
17. C[C@@H]1C(=O)C(C#N)=C[C@]2(c3ccccc3)c3nn(C)c(-c4cccc(-c5ccc(NS(C)(=O)=O)cc5)c4)c3CC[C@@H]12 [Example 169, N-{3′-[(5aS,6S,9aR)-8-cyano-2,6-dimethyl-7-oxo-9a-phenyl-4,5,5a,6,7,9a-hexahydro-2H-benzo[g]indazol-3-yl]biphenyl-4-yl}methanesulfonamide]  8.77 nM
18. C[C@@H]1C(=O)C(C#N)=C[C@]2(c3ccccc3)c3nn(C)c(-c4cccc(-c5ccc(N)cc5)c4)c3CC[C@@H]12 [Example 149, (5aS,6S,9aR)-3-(4′-aminobiphenyl-3-yl)-2,6-dimethyl-7-oxo-9a-phenyl-4,5,5a,6,7,9a-hexahydro-2H-benzo[g]indazole-8-carbonitrile]  7.32 nM
19. C[C@@H]1C(=O)C(C#N)=C[C@]2(c3ccccc3)c3nn(C)c(-c4cccc(-c5ccc(O)cc5)c4)c3CC[C@@H]12 [Example 170, (5aS,6S,9aR)-3-(4′-hydroxybiphenyl-3-yl)-2,6-dimethyl-7-oxo-9a-phenyl-4,5,5a,6,7,9a-hexahydro-2H-benzo[g]indazole-8-carbonitrile]  6.96 nM
20. C[C@@H]1C(=O)C(C#N)=C[C@]2(c3ccccc3)c3nn(C)c(-c4cccc(-c5ccnnc5)c4)c3CC[C@@H]12 [Example 151, (5aS,6S,9aR)-2,6-dimethyl-7-oxo-9a-phenyl-3-[3-(pyridazin-4-yl)phenyl]-4,5,5a,6,7,9a-hexahydro-2H-benzo[g]indazole-8-carbonitrile]  6.81 nM
21. COc1ncc(-c2cccc(-c3c4c(nn3C)[C@@]3(c5ccccc5)C=C(C#N)C(=O)[C@@H](C)[C@@H]3CC4)c2)cn1 [Example 153, (5aS,6S,9aR)-3-[3-(2-methoxypyrimidin-5-yl)phenyl]-2,6-dimethyl-7-oxo-9a-phenyl-4,5,5a,6,7,9a-hexahydro-2H-benzo[g]indazole-8-carbonitrile]  6.46 nM
22. C[C@@H]1C(=O)C(C#N)=C[C@]2(c3ccccc3)c3nn(C)c(-c4cccnc4)c3CC[C@@H]12 [Example 178, (5aS,6S,9aR)-2,6-dimethyl-7-oxo-9a-phenyl-3-(pyridin-3-yl)-4,5,5a,6,7,9a-hexahydro-2H-benzo[g]indazole-8-carbonitrile]  5.4 nM
23. Cc1nc(-c2cccc(CCC(N)=O)c2)c2c(n1)[C@@]1(c3ccccc3)C=C(C#N)C(=O)[C@@H](C)[C@@H]1CC2 [Example 156, 3-{3-[(6aS,7S,10aR)-9-cyano-2,7-dimethyl-8-oxo-10a-phenyl-5,6,6a,7,8,10a-hexahydrobenzo[h]quinazolin-4-yl]phenyl}propanamide]  3.57 nM
24. C[C@@H]1C(=O)C(C#N)=C[C@]2(c3ccccc3)c3nn(C)c(-c4cccc(-c5cn[nH]c5)c4)c3CC[C@@H]12 [Example 167, (5aS,6S,9aR)-2,6-dimethyl-7-oxo-9a-phenyl-3-[3-(1H-pyrazol-4-yl)phenyl]-4,5,5a,6,7,9a-hexahydro-2H-benzo[g]indazole-8-carbonitrile]  3.27 nM
25. C[C@@H]1C(=O)C(C#N)=C[C@]2(c3ccccc3)c3nn(C)c(-c4cccc(-c5cccc(NS(C)(=O)=O)c5)c4)c3CC[C@@H]12 [Example 150, N-{3′-[(5aS,6S,9aR)-8-cyano-2,6-dimethyl-7-oxo-9a-phenyl-4,5,5a,6,7,9a-hexahydro-2H-benzo[g]indazol-3-yl]biphenyl-3-yl}methanesulfonamide]  2.26 nM
26. COC(=O)c1ccc([C@]23C=C(C#N)C(=O)[C@@H](C)[C@@H]2CCc2c(-c4cncn4C)nc(C)nc23)cc1 [Example 175, methyl 4-[(6aS,7S,10aR)-9-cyano-2,7-dimethyl-4-(1-methyl-1H-imidazol-5-yl)-8-oxo-6,6a,7,8-tetrahydrobenzo[h]quinazolin-10a(5H)-yl]benzoate]  2 nM
27. COc1ccc([C@]23C=C(C#N)C(=O)[C@@H](C)[C@@H]2CCc2c(-c4cncn4C)nc(C)nc23)cc1 [Example 174, (6aS,7S,10aR)-10a-(4-methoxyphenyl)-2,7-dimethyl-4-(1-methyl-1H-imidazol-5-yl)-8-oxo-5,6,6a,7,8,10a-hexahydrobenzo[h]quinazoline-9-carbonitrile]  1.9 nM
